Laboratory results: US8937091B2 (Japan Science and Technology Agency, priority 2009, dated 2015)
Where two headings read alike, the source gives them in different places.

Key:
[1] = tested on: SOCE (store operated calcium entry) in CHO cells; assay: Assay of SOCE (store operated calcium entry)-inhibiting action; format: cell-based, Chinese hamster; conditions: CHO cells, thapsigargin
In short: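 CHO cells in calcium-free BSS received compound, then 1 μM thapsigargin 2 min later to deplete stores; after 9 min, 2 mM calcium chloride (final) added. Percent inhibition of the rise in intracellular calcium determined at various compound concentrations.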

[2] = target: TGase (Cavia porcellus, UniProt P08587); format: biochemical; conditions: level with DMSO control designated as 100
Protocol: An enzyme reaction solution (0.1 ml) (100 mM HEPES-NaOH, pH 7.5, 1 mM CaCl2, 20 μM monodansyl cadaverine, 0.05 mg/ml N,N-dimethylcasein, 5 μg/ml TGase) was introduced into wells of a 96-well plate (Nunc, 96 Well Black Plate with Clear Bottom). A test compound was added in concentrations of 0.3, 1.0, 3.0, 10, and 30 μM. The solution and the compound were sufficiently mixed while preventing foaming. The plate was set in the fluorescence drug screening system FDSS 3000 (Hamamatsu Photonics K.K.). TGase-inhibiting activity of the compound was calculated by assaying changes in fluorescence wavelength (at 340 nm) per unit time. […] The assay level at which TGase activity decreased by half in the presence of the test compound was designated as TG 50.
Hereafter, the numerals in parentheses written after the TG level, the SOCE level, and the IICR level correspond to the test compound concentrations. The number following the name of each title compound used in the Examples below represents a compound ID number designated arbitrarily by the present inventors.

[3] = tested on: IICR (IP3 induced calcium release) in CHO cells; assay: Assay of IICR (IP3 induced calcium release)-inhibiting action; format: cell-based, Chinese hamster; conditions: CHO cells, 10 μM ATP
In short: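 CHO cell medium replaced with calcium-containing BSS; compound added 1 min later, then 10 μM ATP after a further 2 min. Percent inhibition of the ATP-evoked rise in intracellular calcium determined at each compound concentration.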

Substance	SOCE level (percentage of inhibition) ([1]; test compound 10 μmol)	SOCE level (percentage of inhibition) ([1]; test compound 30 μmol)	SOCE level (percentage of inhibition) ([1]; test compound 100 μmol)	TG level ([2]; test compound 3 μmol)	TG level ([2]; test compound 10 μmol)	TG level ([2]; test compound 30 μmol)	IICR level (percentage of inhibition) ([3]; test compound 10 μmol)	IICR level (percentage of inhibition) ([3]; test compound 30 μmol)	IICR level (percentage of inhibition) ([3]; test compound 100 μmol)
N,N-bis(2-(5-bromo-2-thiophenoyl)ethyl)cystinemethylester [Example 386]	20%	40%	50%	4.6	2.9	14	44%	72%	77%
N,N-bis(2-naphthoylethyl)cystinemethylester [Example 391]	20%	40%	50%	33	6.4	29	6%	37%	41%
N,N-bis(2-thiophenoylethyl)cystinemethylester [Example 389]	20%	40%	50%	9.7	2.7	−3.8	22%	45%	54%
